Values of other authors in patent US20230087756A1, “SYSTEMS AND METHODS FOR […] OF BREWED BEVERAGES AND ACTIVE INGREDIENTS” (RECEPTOR HOLDINGS, INC., priority 2020, published 2023).

CCCCCc1cc(O)c2c(c1)OC(C)(C)[C@@H]1CCC(C)=C[C@@H]21 [THC, (−)-trans-delta-9-tetrahydrocannabinol]
duration of appetite stimulant effect (after administration): ≥ 24 h
peak effect (after most forms of oral administration): 2 to 4 h
absorbed (after single oral doses): 90-95%
duration of action for psychoactive effects (oral administration): 4 to 6 h
